Laboratory results published in patent US20080058210A1, “Method of isolating shikimic acid from a plant” (priority 2006, published 2008).

Test system: Express spring wheat
Assay: Field trial plots with glyphosate on Express spring wheat; shikimic acid in whole above ground plant by water extraction and HPLC
Assay type: in vivo
Experimental: Field trial plots with glyphosate on Express spring wheat were established at three treatment levels, untreated control, 4 oz formulated/acre, and 14 oz formulated/acre. Field site studies were conducted in eastern Washington, near Kennewick, Wash. There were buffer zones around each treat level and control plot. The whole above ground plant was harvested at time zero, 5, 10, 15, and 20 days after application. The samples were cooled immediately and frozen within one hour. The samples were received from the field and stored in the freezer at <−10 C. At the time of application plants were 8-10 inches tall, after 20 days the control plants were 20-24 inches and beginning to head out.
Plant tissue was placed in an open container and dried at ca. 70 C overnight (14 to 16 hrs). Each sample was ground to pass through a 20 mesh screen. The ground sample was placed in a glass jar. Sealed samples may be stored at ≦−10 C for several months (the longest time tested). Approximately 150 mg of dry ground sample weight was placed into a screw cap bottle, 30 mL of DI water was added, and the bottle was capped and placed on a shaker overnight (14 to 16 hrs) at a minimum of 50 rpm. Extracts were filtered through a Whatman GF/A filter. For quantification, an aliquot was filtered (0.45 μm disposable) into an HPLC auto-sampler vial.
HPLC analysis was performed on a Perkin-Elmer ISS 200. Instrument conditions were as follows: column 250×4.6 mm ALTEX Ultrasphere 5 μm ODS (or equivalent);mobile phase (isocratic) 50 mM KH2PO4 solution adjusted to pH 2.4; flow rate 2 mL/min, detector 214 nm. Calibration curves consisted of 1, 5, 10, 50, 100 and 200 μg/mL standards, r^2 values were ≧0.998. Retention time was ca. 2.0 min.

O=C(O)CNCP(=O)(O)O [glyphosate]
shikimic acid level, factor above normal (higher treat rate 14 oz formulated/acre, day-5): 6 | shikimic acid level, factor above normal (higher treat rate 14 oz formulated/acre, day-10): 10 | shikimic acid level relative to normal (higher treat rate 14 oz formulated/acre, through the study period of 20 days): remains elevated | shikimic acid level relative to normal (low treat rate 4 oz formulated/acre, day 20): within normal levels | shikimic acid level, factor above normal (low treat rate 4 oz formulated/acre, day-5 sampling): 4 | shikimic acid level, factor above normal (low treat rate 4 oz formulated/acre, day-10): 2 | shikimic acid level relative to normal (low treat rate 4 oz formulated/acre, day-15): nearly within normal range
